Where “and” joins values, the source holds several entries; their conditions need not be identical. Equal values may be shown once. Read-outs that look alike come from different tables or passages of the source. Starred links: 1 amine or outer side, 2 acyl side, 3 side chain; linkers in the order of their positions; H or OH if unused. Positions of bridges follow the written chain, without caps; N, C: chain ends. Non-standard residues stand in square brackets, D forms with d. Residues, ends and D or L forms follow the SMILES beside them. TATA = O=C(CC[*:1])N1CN(C(=O)CC[*:2])CN(C(=O)CC[*:3])C1; Phe(4-F) = N[C@@H](Cc1ccc(F)cc1)C(=O)O; β3hR = N=C(N)NCCC[C@H](N)CC(=O)O
What was measured:
[1] = Plasma stability assay (residual FXIIa inhibitory activity after plasma incubation); format: in vitro ADME, human; conditions: for Residual activity of inhibitor: human plasma 37 °C; for half-life at 10 μM: human, plasma
Protocol: Peptide (2 μl of 2 mM in H2O) was added to 398 μl of citrated human plasma (Innovative Research) to obtain a final peptide concentration of 10 μM. The mixture was incubated in a water bath at 37 °C. At different time points (0, 0.5, 1, 2, 4, 8, 12, 24, 48, and 96 h), samples of 30 μl were removed, diluted to 200 μl with aqueous buffer (10 mM Tris-HCl, pH 7.4, 150 mM NaCl, 10 mM MgCl2, 1 mM CaCl2), and incubated for 20 min at 65 °C to inactivate plasma proteases. The peptide/plasma samples were stored at −20 °C until the residual inhibitory activity of the peptides was measured in a FXIIa inhibition assay. […] IC50 values were derived from the fitted curve using an equation described in the Supplementary Methods. Residual inhibition in % was calculated using the equation IC50,0h/IC50,xh*100, wherein IC50,0h is the functional strength of the inhibitor at time point 0 and IC50,xh the functional strength of the inhibitor after one of the different plasma incubation periods mentioned above.

[2] = Plasma degradation assay (LC-MS); format: in vitro ADME, mouse; conditions: 37 °C
Protocol: Plasma stability and peptide cleavage sites were assessed by incubating the bicyclic peptides in mouse plasma and analyzing the products with an LC-MS system (LCMS-2020, Shimadzu). Peptide (2 μl of 2 mM in H2O) was added to 48 μl of citrated mouse plasma (Innovative Research) to obtain a final peptide concentration of 80 μM. The mixture was incubated in a water bath at 37 °C. At different time points (0, 15, 24, 72, 96, 120, and 144 h), samples of 5 μl were removed, mixed with 5 μl of 6 M guanidinium hydrochloride, and incubated for 30 min at RT. Plasma proteins were precipitated by incubation with 200 μl of ice cold EtOH and 0.1% (v/v) formic acid for 30 min and centrifuged at 9000 × g for 20 min at 4 °C. […] The residue was dissolved in 40 µl of deionized water containing 0.1% (v/v) CHOOH and analyzed by LC-MS. The samples were analyzed using an analytical C18 column (Phenomenex C18 Kinetex column, 50 × 2.1 mm, 2.6 μm, 100 Å) and a linear gradient of 5–35% solvent B (MeCN, 0.05% [v/v] CHOOH) in solvent A (H2O, 0.05% [v/v] CHOOH) in 5.5 min at a flow of 1 ml per min. The masses of the intact peptide and degradation products were measured on a single quadrupole mass spectrometer in positive ion mode using electrospray ionization. Peptides were quantified based on the absolute intensities of the detected mass peaks (M^3+ and M^4+).

[3] = Pharmacokinetic study in pigs (plasma concentration by LC-MS); format: in vivo, pig
Protocol: Swiss large white pigs, both sexes, 3–4 months old (30 ± 5 kg) were anesthetized and prepared following procedures used to study myocardial ischemia/reperfusion injury. In this procedure, the ACT is monitored and 2500 IU of heparin are injected when ACT values fall below 180 s. Pigs were injected intravenously with 4 mg kg^−1 of FXII900 dissolved in 1 ml PBS, pH 7.4. […] The concentration of FXII900 in the plasma samples was determined by LC-MS as described below.
The concentration of FXII900 in the plasma samples was quantified based on peak intensities of total ion current (TIC) chromatograms acquired by LC-MS (LCMS-2020, Shimadzu). To 15 μl of plasma sample, 1 μM of internal standard peptide and 5 μl of 6 M guanidinium hydrochloride solution were added and mixed. Plasma proteins were precipitated by the addition of 400 µl of ice cold ethanol (99.9% [v/v] EtOH, 0.1% [v/v] TFA) and incubated on ice for one hour. Precipitate was removed by centrifugation (9000 × g, 20 min, 4 °C) and the supernatant dried by centrifugal evaporation under vacuum. Dried samples were dissolved by sequentially adding 2 μl of DMSO and 18 μl of H2O containing 0.1% (v/v) CHOOH and analyzed by LC-MS. The samples were analyzed using an analytical C18 column (Phenomenex C18 Kinetex column, 50 × 2.1 mm, 2.6 µm, 100 Å) and a linear gradient of 5–30% solvent B (MeCN, 0.05% [v/v] CHOOH) in solvent A (H2O, 0.05% [v/v] CHOOH) in 4.5 min at a flow of 1 ml per min. The mass was measured on a single quadrupole mass spectrometer in positive ion mode using electrospray ionization. Peptides were quantified based on the absolute intensities of the detected mass peaks (M^3+ and M^4+).

SMILES: CC(C)C[C@@H]1NC(=O)[C@H](CCC(N)=O)NC(=O)[C@H](Cc2c[nH]cn2)NC(=O)[C@@H]2CSCCC(=O)N3CN(CN(C3)C(=O)CCSC[C@H](NC(=O)[C@@H](CO)NC(=O)[C@H](N)CCCNC(=N)N)C(=O)N[C@@H](Cc3ccc(F)cc3)C(=O)N[C@@H](CCCNC(=N)N)C(=O)N[C@@H](CC(C)C)C(=O)N3CCC[C@H]3C(=O)N2)C(=O)CCSC[C@@H](C(N)=O)NC(=O)C[C@H](CCCNC(=N)N)NC1=O [FXII900] (H-[dR][dS]C[Phe(4-F)]RLPCHQL[β3hR]C-NH2; linker 3-8-13 via TATA)
- Residual activity of inhibitor ([1]; incubation time 0 h): 100%
- Residual activity of inhibitor ([1]; incubation time 1 h): 95.4017% and 101.157%
- Residual activity of inhibitor ([1]; incubation time 2 h): 110.888% and 102.799%
- Residual activity of inhibitor ([1]; incubation time 4 h): 107.121% and 93.1543%
- Residual activity of inhibitor ([1]; incubation time 8 h): 88.5873% and 105.225%
- Residual activity of inhibitor ([1]; incubation time 12 h): 112.249% and 90.2639%
- Residual activity of inhibitor ([1]; incubation time 24 h): 92.7385% and 98.9596%
- Residual activity of inhibitor ([1]; incubation time 48 h): 82.5714% and 71.5934%
- Residual activity of inhibitor ([1]; incubation time 96 h): 52.5% and 56.04%
- half-life at 10 μM ([1]; 37 °C, remaining FXIIa inhibitory activity, read-out: half-life in human plasma (converted)): 5.33 days
- half-life at 10 μM ([1]; t1/2 in plasma): > 5 days
- degradation products by mass spectrometric analysis of plasma samples [2]: no degradation products
- clearance ([3]; both sexes, Swiss large white, pig, plasma, intravenous, 4 mg kg^−1, read-out: clearance rate (CL)): 11.8 ± 1.8 mL/min/kg
- Cmax ([3]; both sexes, Swiss large white, pig, plasma, intravenous, 4 mg kg^−1, read-out: maximal concentration): ~7 µM
- half-life ([3]; both sexes, Swiss large white, pig, plasma, intravenous, 4 mg kg^−1, read-out: t1/2 (t1/2 β)): 36 ± 5 min
- Vd ([3]; both sexes, Swiss large white, pig, plasma, intravenous, 4 mg kg^−1, read-out: volume of distribution (VD)): 0.61 ± 0.14 L/kg
- level at time molar at 4 min ([3]; both sexes, Swiss large white, pig, plasma, iv, 4 mg/kg, intravenous administration, 4 min, individual pigs and analyses, read-out: Plasma conc.): 7.47 µM
- level at time molar at […] ([3]; both sexes, Swiss large white, pig, plasma, iv, 4 mg/kg, intravenous administration, 15 min, individual pigs and analyses, read-out: Plasma conc.): 2710 nM
- level at time molar at 16 min ([3]; both sexes, Swiss large white, pig, plasma, iv, 4 mg/kg, intravenous administration, 16 min, individual pigs and analyses, read-out: Plasma conc.): 3.71 µM
- level at time molar at 35 min ([3]; both sexes, Swiss large white, pig, plasma, iv, 4 mg/kg, intravenous administration, 35 min, individual pigs and analyses, read-out: Plasma conc.): 1290 nM
- level at time molar at 0.6 h ([3]; both sexes, Swiss large white, pig, plasma, iv, 4 mg/kg, intravenous administration, 36 min, individual pigs and analyses, read-out: Plasma conc.): 1780 nM
- level at time molar at 65 min ([3]; both sexes, Swiss large white, pig, plasma, iv, 4 mg/kg, intravenous administration, 65 min, individual pigs and analyses, read-out: Plasma conc.): 692 nM
- level at time molar at 1.1 h ([3]; both sexes, Swiss large white, pig, plasma, iv, 4 mg/kg, intravenous administration, 66 min, individual pigs and analyses, read-out: Plasma conc.): 799 nM
- level at time molar at 2 h ([3]; both sexes, Swiss large white, pig, plasma, iv, 4 mg/kg, intravenous administration, 120 min, individual pigs and analyses, read-out: Plasma conc.): 278 nM
- Plasma conc. ([3]; intravenous administration, 4 min, individual pigs and analyses): 7.458 µM and 7.475 µM
- Plasma conc. ([3]; intravenous administration, 35 min, individual pigs and analyses): 1.282 µM
